Laboratory results taken from patent US6384080B1, “Anthranilic acid derivatives as inhibitors of the cGMP-phosphodiesterase” (Fujisawa Pharmaceutical Co., Ltd., priority 1998, dated 2002).
Structures can show the parent of a compound that is named as a salt.

biological target: T1, human platelet PDE-V (Homo sapiens, UniProt O76074); test: cGMP-Phosphodiesterase (PDE) assay, enzymatic inhibitory test; assay type: biochemical; conditions: not given
T1 construct: Human platelet cGMP-PDE was separated from other isozymes in human platelets; from tissue; host or cells: human platelets
Procedure: cGMP-Phosphodiesterase (PDE) Assay
Human platelet cGMP-PDE was separated from other isozymes in human platelets by a modification of the method of Thompson et. al. (see Cyclic Nucleotide Phosphodiesterase (PDE), in Methods of Enzymatic analysis, Vol 4, p127-234, 1984). In enzyme inhibition assays, the test compounds were dissolved in DMSO and then diluted with assay buffer (50 mM Tris-HCl, 0.077 mg/ml dithiothreitol and 10 mg/ml snake venom, 1 mM EGTA, pH 8.0), at final concentrations ranging from 10^−10 to 10^−6 M. Assays were performed at 0.1 μM substrate ([^3H]-cGMP) concentration, at 30° C. for 10 minutes using enzyme dilutions which gave 10-20% hydrolysis of substrate. Each assay was initiated by addition of substrate and terminated by addition of anion exchange resin (Dowex® 1-X8, 250 mg/mg) followed by centrifugation for 10 minutes (3000 rpm, at 4° C.). Radioactivity of supernatant (^3H-GMP) was assayed by liquid scintillation counting.

SMILES	IC50
O=C(NCc1ccc([N+](=O)[O-])cc1)c1cc([N+](=O)[O-])ccc1NC1CCCC1 [2-(Cyclopentylamino)-5-nitro-N-(4-nitrobenzyl)benzamide]	< 10 nM

same assay, conditions: human platelet PDE-V; 0.1 μM [3H]-cGMP substrate, 30° C., 10 minutes; read-out: Inhibitory activity IC50

SMILES	IC50
O=C(NCc1cc2ccccc2o1)c1cc([N+](=O)[O-])ccc1N[C@H]1CC[C@@H](O)CC1 [N-(Benzofuran-2-ylmethyl)-2-(cis-4-hydroxycyclohexylamino)-5-nitrobenzamide]	< 10 nM
O=C(NCc1ccc2c(c1)OCO2)c1cc([N+](=O)[O-])ccc1NC1CCNCC1 [5-nitro-2-(4-piperidinylamino)-N-(1,3-benzodioxol-5-ylmethyl)benzamide]	< 10 nM
COc1ccc(CNC(=O)c2cc([N+](=O)[O-])ccc2N[C@H]2CC[C@H](NC(=NC(=O)OC(C)(C)C)NC(=O)OC(C)(C)C)CC2)cc1OC [2-{trans-4-[2,3-bis(tert-butoxycarbonyl)guanidino]cyclohexylamino}-N-(3,4-dimethoxybenzyl)-5-nitrobenzamide]	< 10 nM
O=C(NCC1CCCCC1)c1cc([N+](=O)[O-])ccc1N[C@H]1CC[C@@H](O)CC1 [N-cyclohexylmethyl-2-(cis-4-hydroxycyclohexylamino)-5-nitrobenzamide]	< 10 nM
C[C@H](CO)Nc1ccc([N+](=O)[O-])cc1C(=O)NCc1ccc(-c2ccccc2)cc1 [(R)-2-(2-Hydroxy-1-methylethyl)amino-5-nitro-N-(4-phenybenzyl)benzamide]	< 10 nM
CC[C@@H](CCl)Nc1ccc([N+](=O)[O-])cc1C(=O)NCc1ccc2c(c1)OCO2 [(S)-2-[1-(chloromethyl)propylamino]-5-nitro-N-(1,3-benzodioxol-5-ylmethyl)benzamide]	< 10 nM
O=C(NCc1ccco1)c1cc([N+](=O)[O-])ccc1NC1CCCC1 [2-(Cyclopentylamino)-N-furfuryl-5-nitrobenzamide]	< 10 nM
COc1c(Cl)cc(CNC(=O)c2cc([N+](=O)[O-])ccc2N[C@H]2CC[C@H](O)CC2)cc1Cl [N-(3,5-Dichloro-4-methoxybenzyl)-2-(trans-4-hydroxycyclohexylamino)-5-nitrobenzamide]	< 10 nM
O=C(NCc1ccc(Cl)cc1Cl)c1cc([N+](=O)[O-])ccc1NC1CCCC1 [2-(Cyclopentylamino)-N-(2,4-dichlorobenzyl)-5-nitrobenzamide]	< 10 nM
O=C(NCCCc1ccccc1)c1cc([N+](=O)[O-])ccc1NC1CCCC1 [2-(Cyclopentylamino)-5-nitro-N-(3-phenylpropyl)benzamide]	< 10 nM
CCOC(=O)N1CCC(Nc2ccc([N+](=O)[O-])cc2C(=O)NCc2ccc3c(c2)OCO3)CC1 [2-[1-(Ethoxycarbonyl)piperidin-4-ylamino]-5-nitro-N-(1,3-benzodioxol-5-ylmethyl)benzamide]	< 10 nM
COc1ccc(CNC(=O)c2cc([N+](=O)[O-])ccc2NC(CO)CO)cc1F [N-(3-Fluoro-4-methoxybenzyl)-2-[2-hydroxy-1-(hydroxynethyl)ethylamino]-5-nitrobenzamide]	< 10 nM
O=C(NCc1ccc(F)c(F)c1)c1cc([N+](=O)[O-])ccc1NC1CCCC1 [2-(Cyclopentylamino)-N-(3,4-difluorobenzyl)-5-nitrobenzamide]	< 10 nM
O=C(NCc1ccccc1Cl)c1cc([N+](=O)[O-])ccc1NC1CCCC1 [N-(2-Chlorobenzyl)-2-cyclopentylamino-5-nitrobenzamide]	< 10 nM
O=C(NCc1ccc2c(c1)OCO2)c1cc([N+](=O)[O-])ccc1NC1CCN(Cc2ccccc2)CC1 [2-(1-Benzylpiperidin-4-ylamino)-5-nitro-N-(1,3-benzodioxol-5-ylmethyl)benzamide]	< 10 nM
CC(C)(C)OC(=O)N1CCC(Nc2ccc([N+](=O)[O-])cc2C(=O)NCc2ccc3c(c2)OCO3)CC1 [2-[1-(tert-Butoxycarbonyl)-4-piperidinylamino]-5-nitro-N-(1,3-benzodioxol-5-ylmethyl)benzamide]	< 10 nM
COc1ccc(CNC(=O)c2cc([N+](=O)[O-])ccc2NC2COC(C)(C)OC2)cc1OC [N-(3,4-dimethoxybenzyl)-2-(2,2-dimethyl-1,3-dioxan-5-ylamino)-5-nitrobenzamide]	< 10 nM
Nc1ccc(CNC(=O)c2cc([N+](=O)[O-])ccc2NC2CCCC2)c(Cl)c1 [N-(4-amino-2-chlorobenzyl)-2-(cyclopentylamino)-5-nitrobenzamide]	< 10 nM

Now from value to molecule:

IC50	SMILES
< 10 nM	COc1ccc(CNC(=O)c2cc([N+](=O)[O-])ccc2NC2CCNCC2)cc1OC [N-(3,4-Dimethoxybenzyl)-5-nitro-2-(4-piperidinylamino)benzamide]
< 10 nM	CSc1ccc(CNC(=O)c2cc([N+](=O)[O-])ccc2N[C@H]2CC[C@H](O)CC2)cc1 [2-(trans-4-Hydroxycyclohexyl)amino-N-[4-(methylthio)benzy]-5-nitrobenzamide]
< 10 nM	COc1cc(CNC(=O)c2cc([N+](=O)[O-])ccc2NC(CO)CO)ccc1C [2-[2-Hydroxy-1-hydroxymethyl)ethylamino]-N-(3-methoxy-4-methylbenzyl)-5-nitrobenzamide]
< 10 nM	O=CN1CCC(Nc2ccc([N+](=O)[O-])cc2C(=O)NCc2ccc3c(c2)OCO3)CC1 [2-(1-Formyl-4-piperidinylamino)-5-nitro-N-(1,3-benzodioxol-5-ylmethyl)benzamide]
< 10 nM	O=C(NCc1ccc2c(c1)OCO2)c1cc([N+](=O)[O-])ccc1N[C@@H]1CCOC1 [(R)-5-Nitro-2-(tetrahydro-3-furanylamino)-N-(1,3-benzodioxol-5-ylmethyl)benzamide]
< 10 nM	O=C(NCc1ccc2c(c1)OCO2)c1cc([N+](=O)[O-])ccc1NC1CCSCC1 [5-Nitro-N-(1,3-benzodioxol-5-ylmethyl)-2-(tetrahydro-2H-thiopyran-4-ylamino)benzamide]
< 10 nM	COCCOc1ccc(CNC(=O)c2cc([N+](=O)[O-])ccc2N[C@H]2CC[C@@H](O)CC2)cc1OC [2-(cis-4-Hydroxycyclohexylamino)-N-[3-methoxy-4-(2-methoxyethoxy)benzyl]-5-nitrobenzamide]
< 10 nM	CCOc1ccc(CNC(=O)c2cc([N+](=O)[O-])ccc2N[C@H]2CC[C@@H](O)CC2)cc1OC [N-(4-Ethoxy-3-methoxybenzyl)-2-(cis-4-hydroxycyclohexylamino)-5-nitrobenzamide]
< 10 nM	Cc1ccc(CNC(=O)c2cc([N+](=O)[O-])ccc2NC2CCCC2)cc1 [2-(Cyclopentylamino)-N-(4-methylbenzyl)-5-nitrobenzamide]
< 10 nM	COc1ccc(CNC(=O)c2cc([N+](=O)[O-])ccc2N[C@H]2CC[C@H](N)CC2)cc1OC [2-[(trans-4-Aminocyclohexyl)amino]-N-(3,4-dimethoxybenzyl)-5-nitrobenzamide]
< 10 nM	O=C(NCc1ccc2c(c1)OCO2)c1cc([N+](=O)[O-])ccc1NC1(CO)CCCC1 [2-[1-(Hydroxymethyl)cyclopentylamino]-5-nitro-N-(1,3-benzodioxol-5-ylmethyl)benzamide]
< 10 nM	COc1ccc(CNC(=O)c2cc([N+](=O)[O-])ccc2N[C@H](CO)CNC=O)cc1OC [(S)-N-(3,4-Dimethoxybenzyl)-2-[1-(formamidomethyl)-2-hydroxyethylamino]-5-nitrobenzamide]
< 10 nM	COc1ccc(CNC(=O)c2cc([N+](=O)[O-])ccc2NC2CCCC2)cc1 [2-(Cyclopentylamino)-N-(4-methoxybenzyl)-5-nitrobenzamide]
< 10 nM	COc1ccc(CNC(=O)c2cc([N+](=O)[O-])ccc2NC2COC(=O)OC2)cc1OC [N-(3,4-dimethoxybenzyl)-5-nitro-2-(2-oxo-1,3-dioxan-5-ylamino)benzamide]
< 10 nM	COc1ccc(CNC(=O)c2cc([N+](=O)[O-])ccc2NC2CCN(C(=N)N)CC2)cc1OC [2-(1-Amidinopiperidin-4-ylamino)-N-(3,4-dimethoxybenzyl)-5-nitrobenzamide hydrochloride]
< 10 nM	CCOc1ccc(CNC(=O)c2cc([N+](=O)[O-])ccc2N[C@H]2CC[C@H](NC=O)CC2)cc1OC [N-(4-Ethoxy-3-methoxybenzyl)-2-(trans-4-formamidocyclohexylamino)-5-nitrobenzamide]
< 10 nM	CN1CCC(Nc2ccc([N+](=O)[O-])cc2C(=O)NCc2ccc3c(c2)OCO3)CC1 [2-(1-methyl-4-piperidinylamino)-5-nitro-N-(1,3-benzodioxol-5-ylmethyl)benzamide]
< 10 nM	CC(C)[C@@H](CO)Nc1ccc([N+](=O)[O-])cc1C(=O)NCc1ccc2c(c1)OCO2 [(S)-2-[1-(Hydroxymethyl)-2-methylpropylamino]-5-nitro-N-(1,3-benzodioxol-5-ylmethyl)benzamide]
< 10 nM	Nc1ccc(CNC(=O)c2cc([N+](=O)[O-])ccc2NC2CCCC2)cc1 [N-(4-Aminobenzyl)-2-(cyclopentylamino)-5-nitrobenzamide]
< 10 nM	COC(=O)C1CCC(Nc2ccc([N+](=O)[O-])cc2C(=O)NCc2ccc3c(c2)OCO3)CC1 (stereo not shown) [2-[4-(Methoxycarbonyl)cyclohexylamino]-5-nitro-N-(1,3-benzodioxol-5-ylmethyl)benzamide]
< 10 nM	COc1ccc(Cl)c(CNC(=O)c2cc([N+](=O)[O-])ccc2N[C@H]2CC[C@@H](O)CC2)c1 [N-(2-Chloro-5-methoxybenzyl)-2-(cis-4-hydroxycyclohexylamino)-5-nitrobenzamide]
